Test results reported in patent US20260274832A1, “COMPOUNDS AND THEIR USE IN TREATING CANCER” (ASTRAZENECA AB, priority 2023, published 2026).

Experiments:
[1] = target: T1, AR (AR-full length) in LNCaP cells (Homo sapiens, UniProt P10275, T878A); assay: LNCaP Androgen Receptor Imaging Assay (immunofluorescence of endogenous nuclear AR); type: cell-based; conditions: 24 h incubation; for DC50: concentration giving 50% of maximum degradation of AR per curve fit, single experiment or average of two or more; for Dmax: LNCaP; for Dmax / LNCaP AR Degradation Dmax: maximum degradation observed, normalized as % of positive control (prior art AR PROTAC at 3 μM)
T1 construct: the prostate cancer cell line LNCaP (expressing AR-full length); endogenous in cells; host or cells: LNCaP
T1 sequence (P10275 whole entry T878A): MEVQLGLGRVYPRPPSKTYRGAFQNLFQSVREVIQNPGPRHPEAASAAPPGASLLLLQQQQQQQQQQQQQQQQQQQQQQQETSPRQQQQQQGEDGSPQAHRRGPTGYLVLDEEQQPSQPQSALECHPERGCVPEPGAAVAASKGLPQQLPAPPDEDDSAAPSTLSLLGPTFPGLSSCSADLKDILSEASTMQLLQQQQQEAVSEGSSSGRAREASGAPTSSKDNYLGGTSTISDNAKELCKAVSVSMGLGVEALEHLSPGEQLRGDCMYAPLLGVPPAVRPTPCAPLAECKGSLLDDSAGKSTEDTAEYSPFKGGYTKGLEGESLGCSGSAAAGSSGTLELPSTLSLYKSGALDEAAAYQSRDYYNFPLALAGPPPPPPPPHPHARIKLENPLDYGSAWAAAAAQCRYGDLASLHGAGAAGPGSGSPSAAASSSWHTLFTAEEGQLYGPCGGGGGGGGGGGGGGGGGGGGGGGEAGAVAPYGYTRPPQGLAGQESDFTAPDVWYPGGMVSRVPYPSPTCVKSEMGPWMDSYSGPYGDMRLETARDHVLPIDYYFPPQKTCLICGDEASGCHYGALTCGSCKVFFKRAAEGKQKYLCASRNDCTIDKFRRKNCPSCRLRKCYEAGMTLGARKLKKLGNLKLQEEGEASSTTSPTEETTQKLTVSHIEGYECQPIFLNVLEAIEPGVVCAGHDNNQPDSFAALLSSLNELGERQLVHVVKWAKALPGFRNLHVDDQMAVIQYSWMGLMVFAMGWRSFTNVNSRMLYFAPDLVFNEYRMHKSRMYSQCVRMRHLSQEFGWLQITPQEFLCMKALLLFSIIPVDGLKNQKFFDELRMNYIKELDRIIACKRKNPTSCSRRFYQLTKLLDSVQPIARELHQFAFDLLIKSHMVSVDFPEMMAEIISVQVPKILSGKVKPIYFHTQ
T1 sequence (Q96SW2 whole entry partner): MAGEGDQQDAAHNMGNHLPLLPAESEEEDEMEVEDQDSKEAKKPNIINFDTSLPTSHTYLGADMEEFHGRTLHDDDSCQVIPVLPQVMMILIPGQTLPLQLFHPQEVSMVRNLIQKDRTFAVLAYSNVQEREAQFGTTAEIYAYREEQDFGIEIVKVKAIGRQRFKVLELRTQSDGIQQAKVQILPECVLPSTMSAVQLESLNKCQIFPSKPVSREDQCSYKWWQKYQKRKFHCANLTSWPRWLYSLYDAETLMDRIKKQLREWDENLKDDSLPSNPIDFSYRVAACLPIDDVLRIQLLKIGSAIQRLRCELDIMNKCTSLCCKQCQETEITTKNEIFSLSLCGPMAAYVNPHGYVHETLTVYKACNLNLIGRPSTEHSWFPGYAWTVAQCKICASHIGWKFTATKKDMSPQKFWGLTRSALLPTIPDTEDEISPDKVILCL
Experimental: This cell-based imaging assay uses immuno-fluorescence to measure endogenous nuclear AR staining in the prostate cancer cell line LNCaP (expressing AR-full length). The purpose of the assay is to identify compounds that regulate AR protein level according to the protocol laid out in the steps below.
(§1) All work was performed in a sterile tissue culture hood up to the point of cell fixation. LNCaP cells were cultured at 6-8×10^6 per T175 flask and split every 3-4 days. Medium: RPMI (R7638, VWR Sigma) containing 10% FCS and 1% glutamine. Cells were plated in black wall transparent bottom plates at a density of 12,000 cells (Cedex™ Cell counter, Beckmann & Coulter), 40 μL per well, using a Multidrop (ThermoFisher).
(§2) Cells were dosed with test compound diluted in DMSO using an Echo 555/655™ (Labcyte) and the final concentration of DMSO in the well was 0.3%. A neutral control (DMSO) and a positive AR degrader control at 3 μM (a prior art AR PROTAC) were included. The Echo uses acoustic technology to perform direct microplate-to-microplate transfers of DMSO compound solutions to assay plates. The system can be programmed to transfer volumes as low as 2.5 nL in multiple increments between microplates and in so doing generates a serial dilution of compound in the assay plate which is then back-filled to normalise the DMSO concentration across the dilution range. Compounds were dispensed as a 12 point dose response with indicated concentrations. The plates were incubated at 37° C./5% CO2 for 24 h and then fixed and stained as below. 40 μL of 8% paraformaldehyde solution (v/v) in phosphate buffered saline (PBS) was added on top of the media already in the well using a Multidrop to fix plates giving a final concentration of 4% PFA (v/v) for 20-30 minutes (keep in fume hood to minimise PFA exposure). After 20-30 mins, the plates were washed with 3×PBS using a BioTek washer in a fume hood. A shake out of remaining volume in the well was performed to ensure best removal of remaining PBS. At this plates could be stored in PBS after washing for at least 3 days at 4° C., if so, PBS was removed by the BioTek before continuing with the next step.
(§3) The cells were incubated with a Mouse monoclonal Anti-AR antibody AR441 (DAKO M3562) (1:1000), diluted in modified blocking buffer (PBS+1% BSA+0.1% TritonX); 15 μL/well for 2 h at RT. The plates were then washed with 3×PBS using a BioTek washer. A shake out of remaining volume in the well was performed to ensure best removal of remaining PBS. Cells were then incubated with Goat anti-mouse secondary antibody 488 (Invitrogen A11001) (1:500) and nuclear stain, DRAQ5 (Abcam Ab108410) (1:2000) diluted in modified blocking buffer for 45 mins at room temperature 15 μL/well. Plates are then washed with 3×PBS using a BioTek washer, without final aspiration, and sealed with black plate seals. Plates could be stored after staining for three days at 4° C. before read if required.
(§4) Plates are read using a Cellomics Cellinsight to measure the Androgen Receptor level in each well. The data is exported into Genedata to perform curve fitting analysis. All data are normalized as % of positive control and the BellFit method automatically determines the correct fit method based on the presence of hook effect, choosing the BellFit when there is a hook and HillFit when there is no hook. Down-regulation of AR is expressed as a DC50 value and determined by calculation of the concentration of compound that is required to give 50% of maximum degradation of AR as per the curve fit for that compound. The maximum degradation observed for each compound is expressed as Dmax. The AR degradation data for compounds is shown in the table below and may be a result from a single experiment or an average of two or more experiments.

[2] = target: T2, AR (L702H) in LNCaP cells (Homo sapiens, UniProt P10275, L702H/T878A); assay: LNCaP Androgen Receptor L702H Imaging Assay (LNCaP cells engineered by CRISPR/Cas9); type: cell-based; conditions: LNCaP cells with AR L702H mutation, 24 h incubation; for DC50: concentration giving 50% of maximum degradation of AR (L702H) per curve fit; for Dmax: LNCaP; for Dmax / LNCaP AR (L702H) Degradation Dmax: maximum degradation observed, normalized as % of positive control
T2 construct: engineered to introduce the mutation L702H into the AR gene using CRISPR/Cas9; endogenous in cells; host or cells: LNCaP cells edited by CRISPR/Cas9 at the AR gene
T2 sequence (P10275 whole entry L702H/T878A): as the sequence (P10275 whole entry T878A) above, with L702H counted along it
T2 sequence (Q96SW2 whole entry partner): as the sequence (Q96SW2 whole entry partner) above
Experimental: as §1, §2, §3, §4
At this stage, anti-androgen therapy is largely ineffective due to AR amplification, overexpression or point mutation. One of the point mutations observed in patient populations is L702H in the AR Ligand Binding Domain. LNCAP cells have been engineered to introduce the mutation L702H into the AR gene using CRISPR/Cas9. The previously described imaging-based AR assay will monitor nuclear AR (L702H) levels in these cells to identify compounds that regulate AR (L702H). […]

Row | SMILES | DC50 [1] [µM] | Dmax [1] [%] | DC50 [2] [µM] | Dmax [2] [%] | LNCaP AR Degradation Dmax [1] [%] | LNCaP AR (L702H) Degradation Dmax [2] [%]
1 | N#Cc1c[nH]c2c(N3CCC(c4ccc(N5CCC(CN6CCN(c7ccc8c(c7)CN(C7CCC(=O)NC7=O)C8=O)CC6)CC5)cc4)CC3)ccc(F)c12 (single isomer, unassigned) [Example 3, 7-(4-{4-[4-({4-[2-(2,6-Dioxopiperidin-3-yl)-1-oxo-2,3-dihydro-1H-isoindol-5-yl]piperazin-1-yl}methyl)piperidin-1-yl]phenyl}piperidin-1-yl)-4-fluoro-1H-indole-3-carbonitrile] | 0.018 | 85 | 0.017 | 99 |  | 
2 | N#Cc1c[nH]c2c(N3CCC(c4ccc(N5CCC(CN6CCN(c7ccc8c(c7)CN(C7CCC(=O)NC7=O)C8=O)CC6)CC5)cc4)CC3)ccc(F)c12 (single isomer, unassigned) [Example 4, 7-(4-{4-[4-({4-[2-(2,6-Dioxopiperidin-3-yl)-1-oxo-2,3-dihydro-1H-isoindol-5-yl]piperazin-1-yl}methyl)piperidin-1-yl]phenyl}piperidin-1-yl)-4-fluoro-1H-indole-3-carbonitrile] | 0.006 |  | 0.005 |  | 96 | 106
3 | COc1cc(N2CCN(CC3CCN(c4ccc(C5CCN(c6ccc(Cl)c7c(C#N)c[nH]c67)CC5)cc4)CC3)CC2)cc2c1C(=O)N(C1CCC(=O)NC1=O)C2 (single isomer, unassigned) [Example 16, 4-Chloro-7-[4-(4-{4-[(4-{2-[(3R*)-2,6-dioxopiperidin-3-yl]-7-methoxy-1-oxo-2,3-dihydro-1H-isoindol-5-yl}piperazin-1-yl)methyl]piperidin-1-yl}phenyl)piperidin-1-yl]-1H-indole-3-carbonitrile] | 0.012 |  | 0.024 | 84 | 77 | 
4 | COc1cc(N2CCN(CC3CCN(c4ccc(C5CCN(c6ccc(Cl)c7c(C#N)c[nH]c67)CC5)cc4)CC3)CC2)cc2c1C(=O)N(C1CCC(=O)NC1=O)C2 (single isomer, unassigned) [Example 17, 4-Chloro-7-[4-(4-{4-[(4-{2-[(3S*)-2,6-dioxopiperidin-3-yl]-7-methoxy-1-oxo-2,3-dihydro-1H-isoindol-5-yl}piperazin-1-yl)methyl]piperidin-1-yl}phenyl)piperidin-1-yl]-1H-indole-3-carbonitrile] | 0.003 |  | 0.004 |  | 100 | 102
5 | N#Cc1c[nH]c2c(N3CCC(c4ccc(N5CCC(CN6CCN(c7ccc8c(c7)CN(C7CCC(=O)NC7=O)C8=O)CC6)CC5)cc4)CC3)ccc(Cl)c12 (single isomer, unassigned) [Example 18, 4-Chloro-7-[4-(4-{4-[(4-{2-[(3R*)-2,6-dioxopiperidin-3-yl]-1-oxo-2,3-dihydro-1H-isoindol-5-yl}piperazin-1-yl)methyl]piperidin-1-yl}phenyl)piperidin-1-yl]-1H-indole-3-carbonitrile] | 0.014 | 93 | 0.018 | 96 |  | 
6 | N#Cc1c[nH]c2c(N3CCC(c4ccc(N5CCC(CN6CCN(c7ccc8c(c7)CN(C7CCC(=O)NC7=O)C8=O)CC6)CC5)cc4)CC3)ccc(Cl)c12 (single isomer, unassigned) [Example 19, 4-Chloro-7-[4-(4-{4-[(4-{2-[(3S*)-2,6-dioxopiperidin-3-yl]-1-oxo-2,3-dihydro-1H-isoindol-5-yl}piperazin-1-yl)methyl]piperidin-1-yl}phenyl)piperidin-1-yl]-1H-indole-3-carbonitrile] | 0.004 |  | 0.005 |  | 102 | 102
7 | COc1nc(N2CCN(CC3CCN(c4ccc(C5CCN(c6ccc(Cl)c7c(C#N)c[nH]c67)CC5)cc4)CC3)CC2)cc2c1C(=O)N(C1CCC(=O)NC1=O)C2 (single isomer, unassigned) [Example 35, 4-Chloro-7-[4-(4-{4-[(4-{2-[(3R*)-2,6-dioxopiperidin-3-yl]-4-methoxy-3-oxo-2,3-dihydro-1H-pyrrolo[3,4-c]pyridin-6-yl}piperazin-1-yl)methyl]piperidin-1-yl}phenyl)piperidin-1-yl]-1H-indole-3-carbonitrile] | 0.019 | 84 | 0.029 | 91 |  | 
8 | COc1nc(N2CCN(CC3CCN(c4ccc(C5CCN(c6ccc(Cl)c7c(C#N)c[nH]c67)CC5)cc4)CC3)CC2)cc2c1C(=O)N(C1CCC(=O)NC1=O)C2 (single isomer, unassigned) [Example 36, 4-Chloro-7-[4-(4-{4-[(4-{2-[(3S*)-2,6-dioxopiperidin-3-yl]-4-methoxy-3-oxo-2,3-dihydro-1H-pyrrolo[3,4-c]pyridin-6-yl}piperazin-1-yl)methyl]piperidin-1-yl}phenyl)piperidin-1-yl]-1H-indole-3-carbonitrile] | 0.005 |  | 0.007 |  | 102 | 102
9 | COc1nc(N2CCN(CC3CCN(c4ccc([C@@H]5CCCN(c6ccc(Cl)c7c(C#N)c[nH]c67)C5)cc4)CC3)CC2)cc2c1C(=O)N(C1CCC(=O)NC1=O)C2 (single isomer, unassigned) [Example 39, 4-Chloro-7-[(3S)-3-(4-{4-[(4-{2-[(3R*)-2,6-dioxopiperidin-3-yl]-4-methoxy-3-oxo-2,3-dihydro-1H-pyrrolo[3,4-c]pyridin-6-yl}piperazin-1-yl)methyl]piperidin-1-yl}phenyl)piperidin-1-yl]-1H-indole-3-carbonitrile] | 0.016 | 88 | 0.033 | 99 |  | 
10 | N#Cc1c[nH]c2c(C3CCCN(c4ccc(N5CCC(CN6CCN(c7ccc8c(c7)CN(C7CCC(=O)NC7=O)C8=O)CC6)CC5)cc4)C3)ccc(Cl)c12 (single isomer, unassigned) [Example 94, 4-Chloro-7-[(3S*)-1-{4-[4-({4-[2-(2,6-dioxopiperidin-3-yl)-1-oxo-2,3-dihydro-1H-isoindol-5-yl]piperazin-1-yl}methyl)piperidin-1-yl]phenyl}piperidin-3-yl]-1H-indole-3-carbonitrile] | > 3 |  |  |  |  | 
